Read-outs that look alike come from different tables or passages of the source.
How the values were obtained:
Format in all cases: in vivo
rice (Oryra sativa) = experiment: Test B flooded paddy test; conditions: Oryza sativa, Flood, 250 g ai/ha; scale of 0 to 100 where 0 is no effect and 100 is complete control; read-out: Rice plant response rating
Procedure, shortened: (§1)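 2-leaf plants; pots flooded 3 cm over soil; cpd added to paddy water; depth held; greenhouse 13–15 d; visual rating vs controls, 0 = no effect, 100 = complete control.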

[1] = test system: ducksalad (Heteranthera limosa); experiment: Test B flooded paddy test; conditions: Heteranthera limosa, Flood, 250 g ai/ha; scale of 0 to 100 where 0 is no effect and 100 is complete control; read-out: Ducksalad plant response rating
Procedure, shortened: as §1

[2] = test system: barnyardgrass (Echinochloa crus-galli); experiment: Test B flooded paddy test; conditions: Echinochloa crus-galli, Flood, 250 g ai/ha; scale of 0 to 100 where 0 is no effect and 100 is complete control; read-out: Barnyardgrass plant response rating
Procedure, shortened: as §1

[3] = test system: sedge, umbrella (small-flower umbrella sedge, Cyperus difformis); experiment: Test B flooded paddy test; conditions: Cyperus difformis, Flood, 250 g ai/ha; scale of 0 to 100 where 0 is no effect and 100 is complete control; read-out: Sedge, Umbrella plant response rating
Procedure, shortened: as §1

[4] = test system: blackgrass (Alopecurus myosuroides); experiment: Test A postemergence; conditions: Alopecurus myosuroides, post-emergence, 240 h; for pest or weed control at 125 g/ha: 125 g ai/ha, postemergence; for pest or weed control at 31 g/ha: Postemergence, 31 g ai/ha, visual injury after approx. 10 d, 0 to 100 scale, 0 no effect, 100 complete control
Procedure, shortened: (§2)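 Seeds sprayed preemergence with a directed soil spray, or plants at 2 to 10 cm height and one- to two-leaf stage sprayed postemergence, with test chemicals in a non-phytotoxic solvent mixture containing surfactant, in loam soil–sand blend. Injury rated visually against untreated controls after about 10 d in greenhouse, 0 (no effect) to 100 (complete control).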

[5] = test system: giant foxtail (Setaria faberii); experiment: Test A postemergence; conditions: Setaria faberi, post-emergence, 240 h; for pest or weed control at 125 g/ha: 125 g ai/ha, postemergence; for pest or weed control at 31 g/ha: Postemergence, 31 g ai/ha, visual injury after approx. 10 d, 0 to 100 scale, 0 no effect, 100 complete control
Procedure, shortened: as §2

[6] = test system: wheat (Triticum aestivum); experiment: Test A postemergence; conditions: Triticum aestivum, post-emergence, 240 h; for plant injury at 31 g/ha: Postemergence, 31 g ai/ha, visual injury after approx. 10 d, 0 to 100 scale, 0 no effect, 100 complete control, read-out: Plant response rating, Wheat; for plant injury at 125 g/ha: 125 g ai/ha, postemergence, visual injury rating after approximately 10 d, read-out: Wheat plant response rating (0 to 100 scale, 0 no effect, 100 complete control)
Procedure, shortened: as §2

corn (Zea mays) = experiment: Test A postemergence; conditions: Zea mays, post-emergence, 240 h; for Corn plant response rating (crop injury, 0 = no effect, 100 = complete kill) at 31 g/ha: Postemergence, 31 g ai/ha, visual injury after approx. 10 d, 0 to 100 scale, 100 complete control; for plant injury at 125 g/ha: visual injury rating after approximately 10 d, read-out: Corn plant response rating (0 to 100 scale, 0 no effect, 100 complete control)
Procedure, shortened: as §2

[7] = test system: ragweed (common ragweed, Ambrosia elatior); experiment: Test A postemergence; conditions: Ambrosia artemisiifolia, post-emergence, 240 h; for pest or weed control at 125 g/ha: 125 g ai/ha, postemergence; for pest or weed control at 31 g/ha: Postemergence, 31 g ai/ha, visual injury after approx. 10 d, 0 to 100 scale, 0 no effect, 100 complete control
Procedure, shortened: as §2

[8] = test system: ryegrass, Italian (Italian ryegrass, Lolium multiflorum); experiment: Test A postemergence; conditions: Lolium multiflorum, post-emergence, 240 h; for pest or weed control at 125 g/ha: 125 g ai/ha, postemergence; for pest or weed control at 31 g/ha: Postemergence, 31 g ai/ha, visual injury after approx. 10 d, 0 to 100 scale, 0 no effect, 100 complete control
Procedure, shortened: as §2

[9] = test system: barnyardgrass (Echinochloa crus-galli); experiment: Test A postemergence; conditions: Echinochloa crus-galli, post-emergence, 240 h; for pest or weed control at 125 g/ha: 125 g ai/ha, postemergence; for pest or weed control at 31 g/ha: Postemergence, 31 g ai/ha, visual injury after approx. 10 d, 0 to 100 scale, 0 no effect, 100 complete control
Procedure, shortened: as §2

[10] = test system: pigweed (Amaranthus retroflexus); experiment: Test A postemergence; conditions: Amaranthus retroflexus, post-emergence, 240 h; for pest or weed control at 125 g/ha: 125 g ai/ha, postemergence; for pest or weed control at 31 g/ha: Postemergence, 31 g ai/ha, visual injury after approx. 10 d, 0 to 100 scale, 0 no effect, 100 complete control
Procedure, shortened: as §2

Kochia (Kochia scoparia) = experiment: Test A postemergence; conditions: Bassia scoparia, post-emergence, 240 h; for pest or weed control at 125 g/ha: 125 g ai/ha, postemergence; for pest or weed control at 31 g/ha: Postemergence, 31 g ai/ha, visual injury after approx. 10 d, 0 to 100 scale, 0 no effect, 100 complete control
Procedure, shortened: as §2

[11] = test system: Galium (catchweed bedstraw, Galium aparine); experiment: Test A postemergence; conditions: Galium, post-emergence, 240 h; for pest or weed control at 125 g/ha: 125 g ai/ha, postemergence; for pest or weed control at 31 g/ha: Postemergence, 31 g ai/ha, visual injury after approx. 10 d, 0 to 100 scale, 0 no effect, 100 complete control
Procedure, shortened: as §2

[12] = read-out: Plant response rating, Blackgrass
[13] = read-out: Plant response rating, Foxtail, Giant
[14] = read-out: Plant response rating, Ragweed
[15] = read-out: Plant response rating, Ryegrass, Italian
[16] = read-out: Plant response rating, Barnyardgrass
[17] = read-out: Plant response rating, Pigweed
[18] = read-out: Plant response rating, Kochia
[19] = read-out: Plant response rating, Galium
[20] = visual injury rating after approximately 10 d, read-out: Blackgrass plant response rating (0 to 100 scale, 0 no effect, 100 complete control)
[21] = visual injury rating after approximately 10 d, read-out: Foxtail, Giant plant response rating (0 to 100 scale, 0 no effect, 100 complete control)
[22] = visual injury rating after approximately 10 d, read-out: Ragweed plant response rating (0 to 100 scale, 0 no effect, 100 complete control)
[23] = visual injury rating after approximately 10 d, read-out: Ryegrass, Italian plant response rating (0 to 100 scale, 0 no effect, 100 complete control)
[24] = visual injury rating after approximately 10 d, read-out: Barnyardgrass plant response rating (0 to 100 scale, 0 no effect, 100 complete control)
[25] = visual injury rating after approximately 10 d, read-out: Pigweed plant response rating (0 to 100 scale, 0 no effect, 100 complete control)
[26] = visual injury rating after approximately 10 d, read-out: Kochia plant response rating (0 to 100 scale, 0 no effect, 100 complete control)
[27] = visual injury rating after approximately 10 d, read-out: Galium plant response rating (0 to 100 scale, 0 no effect, 100 complete control)

| Structure (SMILES) | pest or weed control at 250 g/ha (rice (Oryra sativa)) [%] | pest or weed control at 250 g/ha [1] [%] | pest or weed control at 250 g/ha [2] [%] | pest or weed control at 250 g/ha [3] [%] | pest or weed control at 31 g/ha [4, 12] [%] | pest or weed control at 31 g/ha [5, 13] [%] | plant injury at 31 g/ha [6] [%] | Corn plant response rating (crop injury, 0 = no effect, 100 = complete kill) at 31 g/ha (corn (Zea mays)) [%] | pest or weed control at 31 g/ha [7, 14] [%] | pest or weed control at 31 g/ha [8, 15] [%] | pest or weed control at 31 g/ha [9, 16] [%] | pest or weed control at 31 g/ha [10, 17] [%] | pest or weed control at 31 g/ha (Kochia (Kochia scoparia); [18]) [%] | pest or weed control at 31 g/ha [11, 19] [%] | pest or weed control at 125 g/ha [4, 20] [%] | pest or weed control at 125 g/ha [5, 21] [%] | plant injury at 125 g/ha [6] [%] | plant injury at 125 g/ha (corn (Zea mays); 125 g ai/ha, postemergence) [%] | pest or weed control at 125 g/ha [7, 22] [%] | pest or weed control at 125 g/ha [8, 23] [%] | other results |
| --- | --- | --- | --- | --- | --- | --- | --- | --- | --- | --- | --- | --- | --- | --- | --- | --- | --- | --- | --- | --- | --- |
| Cc1cc(F)cc([C@H]2CN(C)C(=O)[C@@H]2C(=O)Nc2ccc(F)c(F)c2F)c1 [Compound 801] | 30 | 90 | 90 | 40 | 20 | 70 | 0 | 20 | 0 | 0 | 80 | 30 | 20 | 30 |  |  |  |  |  |  | pest or weed control at 125 g/ha ([4]; visual injury after approximately 10 d, 0 to 100 scale (0 no effect, 100 complete control), read-out: Plant response rating, Blackgrass): 60%; pest or weed control at 125 g/ha ([5]; visual injury after approximately 10 d, 0 to 100 scale (0 no effect, 100 complete control), read-out: Plant response rating, Foxtail, Giant): 90%; Corn plant response rating (crop injury, 0 = no effect, 100 = complete kill) at 125 g/ha (corn (Zea mays); 125 g ai/ha, postemergence, visual injury after approximately 10 d, 0 to 100 scale (0 no effect, 100 complete control)): 60%; pest or weed control at 125 g/ha ([7]; visual injury after approximately 10 d, 0 to 100 scale (0 no effect, 100 complete control), read-out: Plant response rating, Ragweed): 50%; pest or weed control at 125 g/ha ([8]; visual injury after approximately 10 d, 0 to 100 scale (0 no effect, 100 complete control), read-out: Plant response rating, Ryegrass, Italian): 60%; pest or weed control at 125 g/ha ([9]; visual injury after approximately 10 d, 0 to 100 scale (0 no effect, 100 complete control), read-out: Plant response rating, Barnyardgrass): 90%; pest or weed control at 125 g/ha ([10]; visual injury after approximately 10 d, 0 to 100 scale (0 no effect, 100 complete control), read-out: Plant response rating, Pigweed): 30%; pest or weed control at 125 g/ha (Kochia (Kochia scoparia); visual injury after approximately 10 d, 0 to 100 scale (0 no effect, 100 complete control), read-out: Plant response rating, Kochia): 40%; pest or weed control at 125 g/ha ([11]; visual injury after approximately 10 d, 0 to 100 scale (0 no effect, 100 complete control), read-out: Plant response rating, Galium): 60% |
| CN1C[C@H](c2ccc(C(F)F)cc2)[C@@H](C(=O)Nc2ccccc2F)C1=O [Compound 803] | 55 | 100 | 90 | 0 | 20 | 90 | 0 | 20 | 30 | 0 | 80 | 30 | 50 | 30 | 50 | 90 | 40 | 90 | 30 | 40 | pest or weed control at 125 g/ha [9, 24]: 80%; pest or weed control at 125 g/ha [10, 25]: 40%; pest or weed control at 125 g/ha (Kochia (Kochia scoparia); [26]): 70%; pest or weed control at 125 g/ha [11, 27]: 60% |
| CN1CC[C@H](c2cccc(OC(F)(F)F)c2)[C@@H](C(=O)Nc2cccc(F)c2F)C1=O [Compound 807] | 0 | 100 | 95 | 0 | 0 | 70 | 0 | 0 | 0 | 0 | 70 | 0 | 0 | 0 | 0 | 80 | 30 | 70 | 0 | 0 | pest or weed control at 125 g/ha [9, 24]: 80%; pest or weed control at 125 g/ha [10, 25]: 0%; pest or weed control at 125 g/ha (Kochia (Kochia scoparia); [26]): 0%; pest or weed control at 125 g/ha [11, 27]: 0% |
| CN1CC[C@H](c2cccc(OC(F)(F)F)c2)[C@@H](C(=O)Nc2cccc(Cl)c2F)C1=O [Compound 810] | 0 | 90 | 60 | 0 | 0 | 60 | 0 | 0 | 0 | 0 | 40 | 0 | 0 | 0 | 0 | 80 | 0 | 0 | 0 | 0 | pest or weed control at 125 g/ha [9, 24]: 70%; pest or weed control at 125 g/ha [10, 25]: 0%; pest or weed control at 125 g/ha (Kochia (Kochia scoparia); [26]): 0%; pest or weed control at 125 g/ha [11, 27]: 0% |
